Reference: patent publication US20260092085A1, “SYNTHETIC TRIPLEX PEPTIDE NUCLEIC ACID-BASED INHIBITORS FOR CANCER THERAPY” (University of Connecticut, priority 2022, published 2026)

Legend:
miR-155 [1] = experiment: miR-155 gene expression by RT-PCR in U2932 cells; format: cell-based, human; settings: U2932, 500 nM, 48 hours, relative to scrambled control
Protocol: FIGS. 3A-F show cell culture-based functional assay in U2932 lymphoma cells. (3A) γtcPNA-155-TAMRA uptake in the U2932 lymphoma cell line: Representative flow cytometry traces of TAMRA fluorescence in U2932 cells after treatment with 500 nM dose of γtcPNA-155-TAMRA for 48 hours. The data was analyzed by FlowJo software. (3B) Normalized miR-155 gene expression levels in U2932 after treatment with phosphate buffer saline (PBS) as a control and with 500 nM dose of Scr-γtcPNA-155, PNA-155, γPNA-155 and γtcPNA-155 for 48 hours compared to average control U6 (n=3), data represented as mean±standard error mean (SEM), Statistical analysis was performed using Unpaired two-tailed t-test. Further, statistical analysis was performed relative to Scr-γtcPNA-155 treated cells. ***p<0.001. (3C) Gene expression level of miR-155 downstream genes, tumor suppressor proteins (FOXO3A, CUX1, SOCS1, CSF1R, JARID2, SHIP1, PICALM, PDCD4, BACH1, WEE1, TP53TG3, CASP3, PTEN) in U2932 cell line after treatment with PBS as a control and with after treatment with 500 nM of Scr-γtcPNA-155, PNA-155, γPNA-155 and γtcPNA-155 for 48 hours. Data is normalized with average GAPDH control (n=3), and represented as mean±SEM, *p<0.05. Unpaired two-tailed t-test was used for statistical analysis and analysis was performed relative to Scr-γtcPNA-155 treated cells. (3D) Gene expression level of miR-155 downstream genes MCL1 in U2932 cell line after treatment with PBS as a control and 500 nM of Scr-γtcPNA-155, PNA-155, γPNA-155 and γtcPNA-155 for 48 hours. Data is normalized with average GAPDH control (n=3), and represented as mean±SEM, *p<0.05, **p<0.01 and ***p<0.001. […] (3E) Representative western blot of Mcl-1 and its quantification (n=3 technical replicate) and (3F) Caspase-3 protein and its quantification (n=3 technical replicate) in U2932 cell line after treatment with 500 nM of Scr-γtcPNA-155, PNA-155 and γtcPNA-155 for 48 hours. […] Numbers above western blot panels represent relative quantification of the respective bands using ImageJ software and normalized relative to loading control and treatment control. […]

miR-155 downstream genes = experiment: Gene expression of miR-155 downstream genes by RT-PCR in U2932 cells; format: cell-based, human; settings: U2932, 500 nM, 48 hours
Protocol: FIGS. 3A-F show cell culture-based functional assay in U2932 lymphoma cells. (3A) γtcPNA-155-TAMRA uptake in the U2932 lymphoma cell line: Representative flow cytometry traces of TAMRA fluorescence in U2932 cells after treatment with 500 nM dose of γtcPNA-155-TAMRA for 48 hours. The data was analyzed by FlowJo software. (3B) Normalized miR-155 gene expression levels in U2932 after treatment with phosphate buffer saline (PBS) as a control and with 500 nM dose of Scr-γtcPNA-155, PNA-155, γPNA-155 and γtcPNA-155 for 48 hours compared to average control U6 (n=3), data represented as mean±standard error mean (SEM), Statistical analysis was performed using Unpaired two-tailed t-test. Further, statistical analysis was performed relative to Scr-γtcPNA-155 treated cells. ***p<0.001. (3C) Gene expression level of miR-155 downstream genes, tumor suppressor proteins (FOXO3A, CUX1, SOCS1, CSF1R, JARID2, SHIP1, PICALM, PDCD4, BACH1, WEE1, TP53TG3, CASP3, PTEN) in U2932 cell line after treatment with PBS as a control and with after treatment with 500 nM of Scr-γtcPNA-155, PNA-155, γPNA-155 and γtcPNA-155 for 48 hours. Data is normalized with average GAPDH control (n=3), and represented as mean±SEM, *p<0.05. Unpaired two-tailed t-test was used for statistical analysis and analysis was performed relative to Scr-γtcPNA-155 treated cells. (3D) Gene expression level of miR-155 downstream genes MCL1 in U2932 cell line after treatment with PBS as a control and 500 nM of Scr-γtcPNA-155, PNA-155, γPNA-155 and γtcPNA-155 for 48 hours. Data is normalized with average GAPDH control (n=3), and represented as mean±SEM, *p<0.05, **p<0.01 and ***p<0.001. Statistical analysis was performed using Unpaired two-tailed t-test. Analysis was performed relative to Scr-γtcPNA-155 treated cells. (3E) Representative western blot of Mcl-1 and its quantification (n=3 technical replicate) and (3F) Caspase-3 protein and its quantification (n=3 technical replicate) in U2932 cell line after treatment with 500 nM of Scr-γtcPNA-155, PNA-155 and γtcPNA-155 for 48 hours. Data is represented as mean±SEM and unpaired two-tailed t-test was used for statistical analysis. *p<0.05 **p<0.01. Numbers above western blot panels represent relative quantification of the respective bands using ImageJ software and normalized relative to loading control and treatment control.
Gene expression by RT-PCR: 400,000 U2932 cells were seeded in a 12 well plate. The cells were treated with 500 nM PNA-155, gamma tcPNA-155, gamma PNA-155, Scr gamma tcPNA-155 or were PBS treated (control) for 48 hrs in an incubator (37° C. and 5% CO2). The cells were centrifuged at 2000 rpm for 4 mins at 4° C. The total RNA from the cell pellet was extracted using RNeasy® mini kit (Qiagen). The cDNA was prepared in thermal cycler (Bio-rad) using reverse transcriptase, RNase inhibitor, dNTPs, nuclease-free water and RT primers specific for miR-155 and U6. Random primers were used for the preparation of cDNA for downstream targets. The cDNA was amplified using miR-155 assay, U6 assay, or specific downstream target assays in CFX Connect™ Real-time PCR detection system (Bio-rad). The samples were subjected to polymerase activation (95° C. for 10 mins), followed by 40 cycles of denaturation (95° C. for 15 sec) and annealing (60° C. for 1 min). The 2^−ΔΔCT method was used to calculate the fold change in target genes.

miR-155 [2] = experiment: miR-155 gene expression in U2932 tumor samples after in vivo treatment; design: species or system NSG mice; settings: U2932 xenograft, intra-tumoral
Protocol: FIGS. 22A-D show in vivo gene expression and protein level analysis. (22A) miR-155 gene expression levels in U2932 tumor samples after in vivo treatment with indicated PNAs. Data was normalized with average control U6 (n=4, data represented as mean±standard error mean). ***p<0.001 (22B) Gene expression level of downstream target genes of miR-155: MCL1 in U2932 tumor samples after treatment with total 3 mg kg-1 dose of Scr-γtcPNA-155, PNA-155, γPNA-155 and γtcPNA-155 and normalized with average control GAPDH (n=3, data represented as mean±SEM), unpaired two-tailed t-test was performed for analysis). *p<0.05, **p<0.01 (22C) Representative western blot of Mcl-1 protein and its quantification (n=3 technical replicate) in U2932 tumor samples treated with total 3 mg kg-1 dose of Scr-γtcPNA-155, PNA-155 and γtcPNA-155. Data is represented as mean±SEM and unpaired two-tailed t-test was performed for analysis. *p<0.05. The relative protein levels were determined from the band intensity using ImageJ software and normalized relative to loading control and treatment control. (22D) Gene expression level of tumor suppressor proteins (FOXO3A, CUX1, SOCS1, CSF1R, JARID2, SHIP1, PICALM, PDCD4, BACH1, CASP3) in U2932 tumor samples after treatment with total 3 mg kg-1 dose of Scr-γtcPNA-155, PNA-155, γPNA-155 and γtcPNA-155 and normalized with average control GAPDH (n=3, data represented as mean±SEM, unpaired two-tailed t-test was performed for statistical analysis). *p<0.05, **p<0.01.
RNA and Protein extraction from tumor samples: The mice were injected intra-tumorally with 1 mg kg-1 dose of PNA-155, γtcPNA-155, γPNA-155, Scr-γtcPNA-155 or were untreated. The injections were repeated two additional times after 1 week each. The length, breadth, and depth of the tumors were measured daily using a vernier caliper. The mice were euthanized when the tumor volumes reached 2000 mm^3. The resected tumor sections were finely minced using a sterile blade and suspended in dissociation media (4 ml) comprising of RPMI-1640, 1.2 mg/ml dispase, and 0.5 mg/ml collagenase for 90 mins at 500 rpm at 37° C. The dissociated tumors were washed with buffer saline at 2500 rpm (4 mins) at 4° C. and then suspended in 0.25% trypsin for 4 mins at room temperature. RPMI 1640 media was added to the trypsinized tumor mass, and the cells were passed through a 70 um filter. The cells were centrifuged at 2500 rpm for 4 mins at 4° C. The cell pellet was then suspended in 1×RBC lysis buffer (Sigma) and incubated on ice for 10 mins. PBS was added to the cells and the cells were passed through a 40 um filter. The cells were centrifuged at 2500 rpm for 4 mins at 4° C. The cell pellet was resuspended in 0.5% BSA in PBS. […]

[3] = system: U2932 subcutaneous tumors; experiment: Tumor growth in U2932 derived xenograft model; format: in vivo, NSG mice; settings: intra-tumoral injections days 0, 7, 14
Protocol: Mouse tumor xenograft: Female NSG mice (NOD.Cg-Prkdcscid Il2rgtm1Wjl/SzJ, strain 005557) weighing 20-23 g were procured from Jackson laboratories. 1×10^7 U2932 cells suspended in RPMI-1640 medium were injected subcutaneously in the right and left flank of 6-week-old NSG mice. The mice developed a small bump in 2 weeks. When the tumor volume reached 100-200 mm^3, the mice were randomly assigned to the treatment group (n=6 per group).
RNA and Protein extraction from tumor samples: The mice were injected intra-tumorally with 1 mg kg-1 dose of PNA-155, γtcPNA-155, γPNA-155, Scr-γtcPNA-155 or were untreated. The injections were repeated two additional times after 1 week each. The length, breadth, and depth of the tumors were measured daily using a vernier caliper. The mice were euthanized when the tumor volumes reached 2000 mm^3. The resected tumor sections were finely minced using a sterile blade and suspended in dissociation media (4 ml) comprising of RPMI-1640, 1.2 mg/ml dispase, and 0.5 mg/ml collagenase for 90 mins at 500 rpm at 37° C. The dissociated tumors were washed with buffer saline at 2500 rpm (4 mins) at 4° C. and then suspended in 0.25% trypsin for 4 mins at room temperature. RPMI 1640 media was added to the trypsinized tumor mass, and the cells were passed through a 70 um filter. The cells were centrifuged at 2500 rpm for 4 mins at 4° C. The cell pellet was then suspended in 1×RBC lysis buffer (Sigma) and incubated on ice for 10 mins. PBS was added to the cells and the cells were passed through a 40 um filter. The cells were centrifuged at 2500 rpm for 4 mins at 4° C. The cell pellet was resuspended in 0.5% BSA in PBS. The mouse cells were removed from the tumor cells using a mouse cell depletion kit (Miltenyi Biotec) according to the manufacturer's protocol. The enriched tumor cells from each tumor sample were divided into two fractions. RNA for gene expression analysis was extracted from one tumor fraction by the same procedure as mentioned earlier. The protein for western blot analysis was extracted from the second fraction using the method described above.
For the efficacy study, each mouse received three intra-tumoral injections of either γtcPNA-155, γPNA-155 or PNA-155 on days 0, 7, 14. We noticed that the control and scrambled treated tumors reached 2000 mm^3 much faster during our study, so we could not inject a third time in these mice. […] In contrast, as stated earlier, there was no effect on the control and scrambled PNA control on the tumor volume.

U2932 lymphoma cell line = settings: U2932, 10 uM; cited from earlier work

Row | Substance | miR-155 inhibition (miR-155 [1]) [%] | de-repression of miR-155 target tumor suppressor genes (miR-155 downstream genes) | reduction in MCL1 gene expression levels (miR-155 downstream genes) [%] | decrease in miR-155 gene expression in tumors (miR-155 [2]) [%] | tumor growth / tumor volume [3] | increase in apoptosis compared to control (U2932 lymphoma cell line) [fold]
1 | γPNA-155: single-stranded full-length serine gamma PNA binding miR-155 by Watson-Crick pairing, SEQ ID NO: 1 (ACCCCTATCACGATTAGCATTAA; all peptide nucleic acid (PNA); serine gamma-PNA, two arginine residues (X1 RR) at each terminus, further chemistry not fully specified) | ~83 | significant de-repression | 19 | 80 | reduced the tumor growth | –
2 | cobomarsen | – | – | – | – | – | 4
